Measurements: PubChem BioAssay (NCI)
“And” between values parts separate entries of the source, which are not always exact repeats. Equal values may be shown once.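 Assay format: 96-well plates, 48-hour exposure. GI50 is the concentration that inhibits growth by half. TGI marks complete inhibition of growth.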

Tests used:
Test in all cases: inhibition of tumour cell growth, NCI panel, 48 h
A498 renal = tested on: A498 renal
COLO 205 colon = tested on: COLO 205 colon
K-562 leukemia = tested on: K-562 leukemia
OVCAR-5 ovarian = tested on: OVCAR-5 ovarian
SF-539 CNS = tested on: SF-539 CNS
CAKI-1 renal = tested on: CAKI-1 renal
IGROV1 ovarian = tested on: IGROV1 ovarian
DU-145 prostate = tested on: DU-145 prostate
PC-3 prostate = tested on: PC-3 prostate

| Compound | TGI (A498 renal) [µM] | TGI (COLO 205 colon) | TGI (K-562 leukemia) [µM] | TGI (OVCAR-5 ovarian) [µM] | TGI (SF-539 CNS) | TGI (CAKI-1 renal) [µM] | TGI (IGROV1 ovarian) [µM] | GI50 (A498 renal) [µM] | GI50 (CAKI-1 renal) [µM] | GI50 (COLO 205 colon) [µM] | GI50 (IGROV1 ovarian) [µM] | GI50 (OVCAR-5 ovarian) [µM] | GI50 (SF-539 CNS) [µM] | GI50 (DU-145 prostate) [µM] | GI50 (K-562 leukemia) [µM] | GI50 (PC-3 prostate) [µM] | TGI (PC-3 prostate) [µM] | TGI (DU-145 prostate) [µM] |
| --- | --- | --- | --- | --- | --- | --- | --- | --- | --- | --- | --- | --- | --- | --- | --- | --- | --- | --- |
| CCCCCCCCCCCCCCCCc1c(C(=O)OC)nc(NC#N)[nH]c1=O | > 25 | > 25 µM | > 25 | > 25 | > 25 µM | – | – | – | – | – | – | – | – | – | – | – | – | – |
| C=C(C)CC(C(=O)O)c1ccc(C)cc1 (configuration not stated) | > 100 | > 100 µM | > 100 | > 100 | > 100 µM | > 100 | > 100 | – | – | – | – | – | – | – | – | – | – | – |
| O=C1CCCc2ccc([N+](=O)[O-])c(O)c21 | > 100 | > 100 µM | > 100 | > 100 | > 100 µM | > 100 | > 100 | – | – | – | – | – | – | – | – | – | – | – |
| Cn1cnc([N+](=O)[O-])c1Sc1n[nH]c(-c2ccc(Cl)cc2)n1 | 56.1 | 30.9 µM | 51.3 | 63.6 | 29.9 µM | 78.8 | 62.3 | – | – | – | – | – | – | – | – | – | – | – |
| C=CCCn1nc(-c2ccccc2)oc1=O | > 100 | > 100 µM | > 100 | > 100 | > 100 µM | > 100 | > 100 | – | – | – | – | – | – | – | – | – | – | – |
| c1cc[c]([Ge]([O]c2cccc3cccnc23)([c]2ccccc2)[c]2ccccc2)cc1 | 25.7 | 14.9 µM | – | 29.5 | 11.3 µM | 28.9 | 10.3 | 13 | 10.8 | 4.8 | 3.1 | 15.9 | 3.36 | – | – | – | – | – |
| CC[C@]12CN3CCc4c([nH]c5ccccc45)[C@@](C(=O)OC)(c4cc5c(cc4OC)N(C)[C@H]4[C@@](O)(C(=O)OC)[C@H](OC(C)=O)[C@]6(CC)C=CCN7CC[C@]54[C@@H]76)CC(C3)[C@H]1O2 (some centres not stated) | – | 1.03 µM and 0.387 µM | > 50 | > 100 | 1.8 µM and 9.39 µM | > 100 | > 100 | 0.241 | 3.72 | 0.092 | 0.154 | 1.19 | 0.128 | 0.121 | 0.0499 | 0.222 | > 100 | – |
| C[C@]12Cc3conc3C(O)=C1CC[C@@H]1C2CC[C@@]2(C)C1CC[C@@H]2O (some centres not stated) | 57.7 | 99.4 µM | > 100 | > 100 | 44 µM | > 100 | > 100 | – | – | – | – | – | – | – | – | – | – | – |
| COc1ccc(/C=C/c2onc3c(=O)n(C)nc(-c4ccccc4)c23)cc1 | – | > 100 µM | > 100 | – | > 100 µM | 82.2 | > 100 | – | – | – | – | – | – | – | – | – | – | – |
| CCN1/C(=C/C(C)=C/c2sc3ccc4ccccc4c3[n+]2CC)Sc2ccc3ccccc3c21 | 0.759 | – | 18.4 | 1.93 | 1.01 µM | 1.15 | 0.404 | 0.181 | 0.264 | – | 0.146 | 0.486 | 0.227 | 0.142 | 1.03 | 0.085 | 1.46 | 0.631 |
| NC1=NN(c2ccccc2)C(=O)C1C(=O)C(=O)Nc1ccccc1 (configuration not stated) | > 100 | > 100 µM | > 100 | > 100 | > 100 µM | > 100 | > 100 | – | – | – | – | – | – | – | – | – | – | – |
| CC1OC(n2cc(F)c(=O)[nH]c2=O)CCC1=O (configuration not stated) | > 100 | > 100 µM | > 100 | > 100 | 88.7 µM | > 100 | > 100 | – | – | – | – | – | – | – | – | – | – | – |
| N#CC(Sc1ccccc1)C(N)=O (configuration not stated) | > 100 | > 100 µM | > 100 | > 100 | > 100 µM | > 100 | > 100 | – | – | – | – | – | – | – | – | – | – | – |
| O=CCCn1[nH]c(=O)ccc1=O | > 100 | – | > 100 | > 100 | > 100 µM | > 100 | > 100 | – | – | – | – | – | – | – | – | – | – | – |
| O=C(O)c1cnc2c(ccc3[nH]cccc32)c1=O | > 100 | > 100 µM | > 100 | > 100 | > 100 µM | – | > 100 | – | – | – | – | – | – | – | – | – | – | – |
| CC(=O)N1c2ccccc2N(C(C)=O)C1c1ccc(C2N(C(C)=O)c3ccccc3N2C(C)=O)[nH]1 | > 100 | > 100 µM | > 100 | > 100 | > 100 µM | > 100 | > 100 | – | – | – | – | – | – | – | – | – | – | – |
| C[C@@H]1CC[C@@]2(C)OC(c3ccccc3)[C@H](CO)N2C1=O (some centres not stated) | > 100 | > 100 µM | > 100 | > 100 | > 100 µM | > 100 | > 100 | – | – | – | – | – | – | – | – | – | – | – |
| COc1ccc2cc3c4cc(OC)c(OC)cc4ccn3c2c1 | > 100 | > 100 µM | > 100 | > 100 | > 100 µM | > 100 | > 100 | – | – | – | – | – | – | – | – | – | – | – |
| O=S1Nc2cccc(C(F)(F)F)c2S1 (configuration not stated) | 97.3 | 35.8 µM | > 100 | > 100 | > 100 µM | > 100 | > 100 | – | – | – | – | – | – | – | – | – | – | – |
| O/N=C1/CCCC/C1=C\c1ccc(Cl)c(Cl)c1 | 84.5 | 38.9 µM | > 100 | – | 41.1 µM | 99.7 | > 100 | – | – | – | – | – | – | – | – | – | – | – |
| COc1ccc(C2(Cl)C(Cl)(C(F)(F)F)C2(Cl)C(F)(F)F)cc1 (configuration not stated) | – | 29.3 µM | > 100 | 27 | 28.9 µM | 29.5 | 30.8 | – | – | – | – | – | – | – | – | – | – | – |
